“And” between values parts separate entries of the source, which are not always exact repeats. Equal entries are not always repeated. Where two headings read alike, the source gives them in different places. Square brackets hold non-standard residues; d marks the D form. Peptide text beside a SMILES is read from it. * marks the point of attachment. dPhe(4-NHCONH2) = NC(=O)Nc1ccc(C[C@@H](N)C(=O)O)cc1; Dihydroorotyl(S) = O=C1C[C@@H](C(=O)*)NC(=O)N1; dPhe(4-Cl) = N[C@H](Cc1ccc(Cl)cc1)C(=O)O; Phe(4-NH2) = Nc1ccc(C[C@H](N)C(=O)O)cc1; d2Nal = N[C@H](Cc1ccc2ccccc2c1)C(=O)O; Lys(iPr) = CC(C)NCCCC[C@H](N)C(=O)O; d3Pal = N[C@H](Cc1cccnc1)C(=O)O
Assays:
[1] = tested on: prostate-specific antigen (PSA); experiment: PSA failure in prostate cancer patients (clinical study CS21); assay type: in vivo, human; settings: for proportion of PSA failures: degarelix 240/80 mg
Method: For this analysis, PSA failure (a secondary endpoint) was defined as two consecutive increases in PSA of 50% and 5 ng/mL compared with nadir. The time to PSA failure was defined as the number of days from first dosing to where an increase in serum PSA of 50% from nadir and 5 ng/mL, measured on two consecutive occasions at least two weeks apart, was noted. The second occasion was the time point of meeting the criterion. PSA failure rates were also analyzed by disease stage and baseline PSA level.
(§1) The secondary efficacy endpoints were: the proportion of patients with testosterone surge during the first 2 weeks of treatment; the proportion of patients with testosterone level ≦0.5 ng/mL at day 3; the percentage change in PSA from baseline to day 28; the probability of testosterone ≦0.5 ng/mL from day 56 through day 364; the levels of serum testosterone, LH, FSH and PSA over time through the study; the time to PSA failure, defined as two consecutive increases of 50%, and at least 5 ng/mL as compared to nadir; degarelix concentration over the first month and trough levels at day 308 and 336; the frequency and size of testosterone increases at day 255 and/or 259 compared to the testosterone level at day 252; the quality of life on days 0, 28, 84, 168 and end of study visit; the frequency and intensity of hot flushes experienced (scored daily from study start until end of study visit). In addition, two further secondary endpoints were added: the probability of sufficient testosterone response from day 28 through day 364 (a patient was considered to have insufficient testosterone response if they had one testosterone value >1.0 ng/mL or two consecutive testosterone values >0.5 ng/mL at day 28 onwards); and the percentage change in PSA from baseline to day 14.
The secondary endpoints, probability of testosterone ≦0.5 ng/mL from day 56 through day 364, time to PSA failure, and probability of sufficient testosterone response from day 28 through day 364 were analyzed by the Kaplan-Meier method.

[2] = in vitro; settings: plasma
[3] = tested on: serum alkaline phosphatase (S-ALP); experiment: S-ALP analysis in prostate cancer patients (clinical study CS21); assay type: in vivo, human; settings: Degarelix 240/80 mg
Method: Patients with histologically confirmed adenocarcinoma of the prostate (all stages), for whom androgen deprivation therapy was indicated were recruited. Baseline characteristics were well balanced between groups. Approximately half of patients had locally advanced (29.2%) or metastatic (20.5%) disease at baseline. […] Patients receiving leuprolide could also receive bicalutamide for clinical flare protection. The S-ALP levels were measured in each patient at various time points, by taking a blood sample and analyzing for S-ALP. S-ALP levels were measured using a standardized colorimetric assay based on the p-nitrophenyl phosphate AMP buffer method. The normal range for S-ALP is 44-147 IU/L. The S-ALP values in non-metastatic patients serve as controls. An ANOVA analysis with treatment and day as factors and baseline value as covariate was used to determine between treatment differences at Day 364. A repeated measures analysis (incorporating all time points from Day 112) with treatment and day as factors and baseline value as covariate was used to assess between treatment differences from Day 112 to Day 364.

[4] = human, in vivo
[5] = clinical; settings: male, human, in vivo, sc, 240 mg
[6] = tested on: testosterone; assay type: in vivo, human; settings: for overall proportion of patients with testosterone ≦0.5 ng/mL from day 28 to day 364: observed cases analysis
Method: The study also evaluated the pharmacokinetics of the degarelix dosing regimens investigated. Finally, the study examined the effects of using the degarelix treatment on patients suffering from different stages of cancer. […] The primary efficacy endpoint was the probability of testosterone levels remaining ≦0.5 ng/mL from day 28 through day 364. […] The primary efficacy endpoint was analyzed for both the ITT and PP analysis sets, with the ITT analysis set considered primary. The primary efficacy endpoint was analyzed using the Kaplan Meier method. For each of the three treatment groups, testosterone response rates with 95% confidence interval (CI) were calculated by log-log transformation of survivor function. […] All secondary efficacy endpoints were analyzed for both the ITT and PP analysis sets, unless otherwise stated. […] The percentage change in PSA from baseline to day 28 endpoint was analyzed by a Wilcoxon test.

[7] = tested on: follicle stimulating hormone (FSH); experiment: Serum FSH levels over time (clinical study CS21); assay type: in vivo, human; settings: by day 7; degarelix
Method: The study also investigated whether degarelix is safe and effective with respect to achieving and maintaining testosterone suppression to castrate levels, evaluated as the proportion of patients with testosterone suppression ≦0.5 ng/mL during 12 months of treatment. […] The study also evaluated the pharmacokinetics of the degarelix dosing regimens investigated. Finally, the study examined the effects of using the degarelix treatment on patients suffering from different stages of cancer.
Patients in two treatment groups received a degarelix starting dose of 240 mg at a concentration of 40 mg/mL (240@40) on day 0 administered as two equivalent subcutaneous (s.c.) injections of 120 mg each. Thereafter, patients received 12 additional single s.c. degarelix doses of either 80 mg at a concentration of 20 mg/mL (80@20: degarelix 240/80 mg group) or 160 mg at a concentration of 40 mg/mL (160@40: degarelix 240/160 mg group) administered s.c. every 28 days.
as §1

[8] = clinical; set-up: species or system human; settings: in vivo
From the text: Plasma protein binding is estimated to be approximately 90%.

[9] = tested on: human CYP450 (cytochrome P450) system

For CC(=O)N[C@H](Cc1ccc2ccccc2c1)C(=O)N[C@H](Cc1ccc(Cl)cc1)C(=O)N[C@H](Cc1cccnc1)C(=O)N[C@@H](CO)C(=O)N[C@@H](Cc1ccc(NC(=O)[C@@H]2CC(=O)NC(=O)N2)cc1)C(=O)N[C@H](Cc1ccc(NC(N)=O)cc1)C(=O)N[C@@H](CC(C)C)C(=O)N[C@@H](CCCCNC(C)C)C(=O)N1CCC[C@H]1C(=O)N[C@H](C)C(N)=O [degarelix, D-Alaninamide, N-acetyl-3-(2-naphthalenyl)-D-alanyl-4-chloro-D-phenylalanyl-3-(3-pyridinyl)-D-alanyl-L-seryl-4-[[[(4S)-hexahydro-2,6-dioxo-4-pyrimidinyl]carbonyl]amino]-L phenylalanyl-4-[(aminocarbonyl)amino]-D-phenylalanyl-L leucyl-N6-(1-methylethyl)-L-lysyl-L-prolyl] (Ac-[d2Nal][dPhe(4-Cl)][d3Pal]S[Phe(4-NH2)](Dihydroorotyl(S))[dPhe(4-NHCONH2)]L[Lys(iPr)]P[dA]-NH2), the “probability of completing the study without experiencing PSA failure by day 364” value ([1]; degarelix 240/80 mg group) was 91.1% and 91.2%, the “proportion of PSA failures” value ([1]; patients with baseline PSA>50 ng/mL) was 29.2% and the “proportion of PSA failures” value ([1]; patients with metastatic disease at baseline) was 21.6%. The fraction unbound [2] was ~0.1, the “S-ALP mean change from baseline” value ([3]; Localized, Day 112) was “+5 IU/L” and the “S-ALP mean change from baseline” value ([3]; Localized, Day 224) was “+8 IU/L”. For the same compound, the “S-ALP mean change from baseline” value ([3]; Localized, Day 364) was “+10 IU/L”, the “S-ALP mean change from baseline” value ([3]; Locally advanced, Day 112) was “+6 IU/L” and the “S-ALP mean change from baseline” value ([3]; Locally advanced, Day 224) was “+7 IU/L”. The “S-ALP mean change from baseline” value ([3]; Locally advanced, Day 364) was “+10 IU/L”, the “S-ALP mean change from baseline” value ([3]; Metastatic (Hb < 130 g/L), Day 112) was −160 IU/L and the “S-ALP mean change from baseline” value ([3]; Metastatic (Hb < 130 g/L), Day 224) was −200 IU/L. The “S-ALP mean change from baseline” value ([3]; Metastatic (Hb < 130 g/L), Day 364) was −230 IU/L, the “S-ALP mean change from baseline” value ([3]; Metastatic, Day 112) was −90 IU/L and the “S-ALP mean change from baseline” value ([3]; Metastatic, Day 224) was −100 IU/L. For the same compound, the “S-ALP mean change from baseline” value ([3]; Metastatic, Day 364) was −90 IU/L, the “S-ALP mean change from baseline” value ([3]; baseline PSA 10-20 ng/mL, Day 112) was “+5 IU/L” and the “S-ALP mean change from baseline” value ([3]; baseline PSA 10-20 ng/mL, Day 224) was “+8 IU/L”. For the same compound, the “S-ALP mean change from baseline” value ([3]; baseline PSA 10-20 ng/mL, Day 364) was “+13 IU/L”, the “S-ALP mean change from baseline” value ([3]; baseline PSA 20-50 ng/mL, Day 112) was “+5 IU/L” and the “S-ALP mean change from baseline” value ([3]; baseline PSA 20-50 ng/mL, Day 224) was “+7.5 IU/L”. The “S-ALP mean change from baseline” value ([3]; baseline PSA 20-50 ng/mL, Day 364) was “+4.5 IU/L”, the “S-ALP mean change from baseline” value ([3]; baseline PSA < 10 ng/mL, Day 112) was “+4.5 IU/L” and the “S-ALP mean change from baseline” value ([3]; baseline PSA < 10 ng/mL, Day 224) was “+5.5 IU/L”. The “S-ALP mean change from baseline” value ([3]; baseline PSA < 10 ng/mL, Day 364) was “+7 IU/L”, the “S-ALP mean change from baseline” value ([3]; baseline PSA > 50 ng/mL, Day 112) was −60 IU/L and the “S-ALP mean change from baseline” value ([3]; baseline PSA > 50 ng/mL, Day 224) was −70 IU/L. The “S-ALP mean change from baseline” value ([3]; baseline PSA > 50 ng/mL, Day 364) was −60 IU/L, the tolerability [4] was “generally well tolerated” and the Cmax [5] was 53.4 ng/mL. For the same compound, the Tmax [5] was 1.4 days, the half-life ([5]; T½) was 43 days and the half-life ([5]; median terminal half-life) was ~43 days. For the same compound, the median testosterone level ([6]; 240 mg then monthly 80 mg, after one year) was 0.087 ng/mL, the “patients with sustained testosterone suppression” value ([6]; 240 mg then monthly 80 mg, at least one year) was 97% and the “Kaplan-Meier estimate of the probability of testosterone ≦0.5 ng/mL from day 28 to day 364” value ([6]; degarelix 240/80 mg group) was 97.2%. For the same compound, the “Kaplan-Meier estimate of the probability of testosterone ≦0.5 ng/mL from day 28 to day 364” value ([6]; degarelix 240/160 mg group) was 98.3%, the “proportion of patients with testosterone surge (increase 15% from baseline)” value ([6]; human, in vivo) was 0.2% and the “overall proportion of patients with testosterone ≦0.5 ng/mL from day 28 to day 364” value ([6]; degarelix 240/80 mg group) was 97.0%. For the same compound, the “overall proportion of patients with testosterone ≦0.5 ng/mL from day 28 to day 364” value ([6]; degarelix 240/160 mg group) was 98.2%, the “patients exhibiting testosterone suppression on day 3” value ([6]; patients receiving degarelix) was 96% and the “decrease of median FSH from baseline” value [7] was > 80%. For the same compound, the “median FSH level” value [7] was ≤ 1.5 IU/L, the “fraction excreted via the hepato-biliary system” value [8] was “approximately 80%” and the Vd ([8]; male, human) was ~1 L/kg. The clearance ([8]; male, human) was 0.583 to 0.833 mL/min/kg, the dose excreted ([8]; male, human) was ~20% and the “substrate for the human CYP450 system” value [9] was “not a substrate”.

Source: US9877999B2, “Methods for treating metastatic stage prostate cancer” (Ferring International SA, priority 2008, dated 2018)
